The values that follow come from ChEMBL document CHEMBL5360554, “Optimization of the C2 substituents on the 1,4-bis(arylsulfonamido)naphthalene-N,N'-diacetic acid scaffold for better inhibition of Keap1-Nrf2 protein-protein interaction” (Eur J Med Chem, 2023).

The target in assay [1] is T1, Keap1/Nrf2 (Homo sapiens, UniProt Q14145). Nature of the assay: Inhibition of Keap1-Nrf2 protein-protein interaction (unknown origin) incubated for 34 mins by fluorescence polarization assay. For orientation: Fluorescence polarisation rises when a labelled molecule tumbles more slowly, as on binding a larger partner.
T1 sequence (Q16236 whole entry): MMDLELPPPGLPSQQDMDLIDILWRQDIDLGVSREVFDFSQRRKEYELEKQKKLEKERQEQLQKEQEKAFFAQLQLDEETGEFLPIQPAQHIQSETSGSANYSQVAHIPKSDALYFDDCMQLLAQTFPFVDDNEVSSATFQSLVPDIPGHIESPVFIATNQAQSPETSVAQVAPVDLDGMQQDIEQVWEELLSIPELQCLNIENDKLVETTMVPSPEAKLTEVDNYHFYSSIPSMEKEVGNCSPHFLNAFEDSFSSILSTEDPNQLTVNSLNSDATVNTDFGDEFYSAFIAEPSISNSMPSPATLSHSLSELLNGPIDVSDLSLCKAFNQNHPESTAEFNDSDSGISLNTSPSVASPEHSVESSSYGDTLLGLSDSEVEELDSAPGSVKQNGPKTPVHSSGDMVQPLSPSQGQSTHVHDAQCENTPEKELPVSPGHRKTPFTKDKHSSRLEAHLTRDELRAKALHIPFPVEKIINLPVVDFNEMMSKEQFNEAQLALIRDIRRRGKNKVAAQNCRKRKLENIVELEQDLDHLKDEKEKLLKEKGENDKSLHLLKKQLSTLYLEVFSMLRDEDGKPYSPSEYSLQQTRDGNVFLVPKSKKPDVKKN
T1 sequence (Q14145 whole entry): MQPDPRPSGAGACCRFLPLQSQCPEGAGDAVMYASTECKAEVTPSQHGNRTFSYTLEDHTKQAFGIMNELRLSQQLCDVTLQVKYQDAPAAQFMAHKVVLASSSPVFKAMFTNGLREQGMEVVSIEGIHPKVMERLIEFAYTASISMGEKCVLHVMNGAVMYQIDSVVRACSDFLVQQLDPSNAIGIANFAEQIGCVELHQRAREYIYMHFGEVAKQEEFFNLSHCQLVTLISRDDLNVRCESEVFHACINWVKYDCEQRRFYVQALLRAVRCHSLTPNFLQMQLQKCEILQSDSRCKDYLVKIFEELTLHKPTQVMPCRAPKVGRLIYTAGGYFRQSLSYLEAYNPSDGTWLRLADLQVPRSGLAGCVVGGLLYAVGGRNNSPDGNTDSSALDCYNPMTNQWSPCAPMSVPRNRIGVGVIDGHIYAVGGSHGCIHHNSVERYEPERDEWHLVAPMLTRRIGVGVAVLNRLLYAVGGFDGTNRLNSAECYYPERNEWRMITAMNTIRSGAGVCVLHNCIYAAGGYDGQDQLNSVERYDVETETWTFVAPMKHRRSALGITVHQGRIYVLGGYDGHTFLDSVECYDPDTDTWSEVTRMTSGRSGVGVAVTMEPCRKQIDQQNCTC
The target of assay [2] is T1, Keap1/Nrf2. Nature of the assay: Inhibition of Keap1-Nrf2 protein-protein interaction (unknown origin) preincubated for 30 mins followed by Terbium labeled anti-His antibody addition for 30 mins prior to fluorescein labeled-9mer Nrf2 peptide addition and measured after 60 mins by TR-FRET assay.
Assay [3] deals with T2, Keap1/Nrf2 (Homo sapiens) (UniProt Q16236+Q14145). Nature of the assay: Inhibition of Keap1-Nrf2 protein-protein interaction in human NCM460D cells assessed as increase in HMOX1 gene expression at 100 uM by RT-qPCR analysis. It is filed as cell-based. Background: Quantitative PCR measures a nucleic acid by following its amplification.
T2 sequence (Q14145 whole entry, looked up): as the sequence (Q14145 whole entry) above
T2 sequence (Q16236 whole entry, looked up): as the sequence (Q16236 whole entry) above
In assay [4] the target is T2, Keap1/Nrf2 (Homo sapiens). The experiment in a line: Inhibition of Keap1-Nrf2 protein-protein interaction in human NCM460D cells assessed as increase in GSTM3 gene expression at 100 uM by RT-qPCR analysis. The assay is classed as cell-based.
Assay [5] addresses T2, Keap1/Nrf2 (Homo sapiens). Nature of the assay: Inhibition of Keap1-Nrf2 protein-protein interaction in human NCM460D cells assessed as increase in NQO1 gene expression at 100 uM by RT-qPCR analysis. It is filed as cell-based.
The target in assay [6] is T2, Keap1/Nrf2 (Homo sapiens). The experiment in a line: Inhibition of Keap1-Nrf2 protein-protein interaction in human NCM460D cells assessed as fold increase in GSTM3 gene expression at 100 uM by RT-qPCR analysis. It is filed as cell-based.
The target in assay [7] is T2, Keap1/Nrf2 (Homo sapiens). Nature of the assay: Inhibition of Keap1-Nrf2 protein-protein interaction in human NCM460D cells assessed as fold increase in HMOX1 gene expression at 100 uM by RT-qPCR analysis. The assay is classed as cell-based.
The target in assay [8] is T2, Keap1/Nrf2 (Homo sapiens). Nature of the assay: Inhibition of Keap1-Nrf2 protein-protein interaction in human NCM460D cells assessed as fold increase in NQO1 gene expression at 100 uM by RT-qPCR analysis. The assay is classed as cell-based.
The target in assay [9] is T2, Keap1/Nrf2 (Homo sapiens). Nature of the assay: Inhibition of Keap1-Nrf2 protein-protein interaction in human NCM460D cells assessed as fold increase in GSTM3 gene expression at 10 uM by RT-qPCR analysis. The assay is classed as cell-based.
In assay [10] the target is T2, Keap1/Nrf2 (Homo sapiens). The experiment in a line: Inhibition of Keap1-Nrf2 protein-protein interaction in human NCM460D cells assessed as fold increase in HMOX1 gene expression at 10 uM by RT-qPCR analysis. The assay is classed as cell-based.
Assay [11] addresses T2, Keap1/Nrf2 (Homo sapiens). The experiment in a line: Inhibition of Keap1-Nrf2 protein-protein interaction in human NCM460D cells assessed as fold increase in NQO1 gene expression at 10 uM by RT-qPCR analysis. The assay is classed as cell-based.

Activity calls are given as the source filed them. No cut-off for these calls is given here. Bounds are passed on as bounds.

`COc1ccc(S(=O)(=O)N(CC(=O)O)c2cc(-c3ccc(C#N)cc3)c(N(CC(=O)O)S(=O)(=O)c3ccc(OC)cc3)c3ccccc23)cc1`: the values for the half-maximal inhibitory concentration (IC50) against Keap1/Nrf2 [1] and against Keap1/Nrf2 [2] were 117 nM and 9.2 nM, respectively. The Ki – broadly, the dissociation constant of the complex between target and ligand, obtained from inhibition or displacement – at Keap1/Nrf2 [2] turned out to be 3.1 nM. Also, the “HMOX1 gene expression increase (active/not active)” value in [3] is “inactive”. Further, the inhibition entry in assay [4] and in assay [5] was “inactive” in each case.
For the compound `COc1ccc(S(=O)(=O)N(CC(=O)O)c2cc(CCC(=O)N3CCOCC3)c(N(CC(=O)O)S(=O)(=O)c3ccc(OC)cc3)c3ccccc23)cc1`, the IC50 – broadly, the midpoint of a concentration-inhibition curve – stood at 87 nM at Keap1/Nrf2 [1] and 6.9 nM against Keap1/Nrf2 [2]. Further, the Ki at Keap1/Nrf2 [2] was 2 nM. Also, in [3], the “HMOX1 gene expression increase (active/not active)” value is “Active”. The inhibition entry in assay [4] and in [5] was “Active” in each case.
Take `COc1ccc(-c2cc(N(CC(=O)O)S(=O)(=O)c3ccc(OC)cc3)c3ccccc3c2N(CC(=O)O)S(=O)(=O)c2ccc(OC)cc2)cc1`: the results for the IC50 against Keap1/Nrf2 [1] and on Keap1/Nrf2 [2] were 85 nM and 13.1 nM, respectively. On Keap1/Nrf2 [2], this compound had a Ki of 4.9 nM. Moreover, the “HMOX1 gene expression increase (active/not active)” value in [3] is “Active”. Besides, the inhibition entry in assay [4] and in assay [5] was “Active” each time. The fold change (FC) in [6], in assay [7] and in assay [8] was 8 in each case.
With `COc1ccc(S(=O)(=O)N(CC(=O)O)c2cc(CCCN3C(=O)c4ccccc4C3=O)c(N(CC(=O)O)S(=O)(=O)c3ccc(OC)cc3)c3ccccc23)cc1`, the values for the IC50 at Keap1/Nrf2 [1] and against Keap1/Nrf2 [2] were 77 nM and 2.5 nM, respectively. For the same compound, the Ki at Keap1/Nrf2 [2] was less than 0.1 nM. In assay [3], the “HMOX1 gene expression increase (active/not active)” value is “Active”. For the same compound, the inhibition entry in assay [4] and in assay [5] was “Active” each time. Besides, the fold change (FC) in assay [9], in assay [10] and in assay [11] was 3 each time.
Regarding `COc1ccc(S(=O)(=O)N(CC(=O)O)c2cc(-c3ccccc3)c(N(CC(=O)O)S(=O)(=O)c3ccc(OC)cc3)c3ccccc23)cc1`, the IC50 on Keap1/Nrf2 [1] was 96 nM; against Keap1/Nrf2 [2], 7.7 nM. For the same compound, the Ki at Keap1/Nrf2 [2] was found to be 2.4 nM.
For the compound `COc1ccc(S(=O)(=O)N(CC(=O)O)c2cc(CCCN(C)Cc3ccccc3)c(N(CC(=O)O)S(=O)(=O)c3ccc(OC)cc3)c3ccccc23)cc1`, at Keap1/Nrf2 [2], the IC50 was determined as 73.6 nM and the inhibition constant Ki was determined as 32.9 nM.
For the compound `COc1ccc(S(=O)(=O)N(CC(=O)O)c2cc(-c3ccc(N4C(=O)c5ccccc5C4=O)cc3)c(N(CC(=O)O)S(=O)(=O)c3ccc(OC)cc3)c3ccccc23)cc1`, the IC50 at Keap1/Nrf2 [1] was determined as 90 nM; against Keap1/Nrf2 [2] it was 7.1 nM. The compound also displayed a Ki on Keap1/Nrf2 [2] of 2.1 nM. In addition, the “HMOX1 gene expression increase (active/not active)” value in assay [3] is “Active”. Besides, the inhibition result in assay [4] and in [5] was “Active” each time. The fold change (FC) in [9], in [10] and in [11] was 3 each time.
As for `COc1ccc(S(=O)(=O)N(CC(=O)O)c2cc(CCC(=O)NC(C)C)c(N(CC(=O)O)S(=O)(=O)c3ccc(OC)cc3)c3ccccc23)cc1`, it took 102 nM to reach half-maximal inhibition against Keap1/Nrf2 [1] (IC50). On Keap1/Nrf2 [2], this compound gave an IC50 of 12.6 nM and a Ki of 4.6 nM.
Take `COc1ccc(S(=O)(=O)N(CC(=O)O)c2cc(Sc3ccccc3)c(N(CC(=O)O)S(=O)(=O)c3ccc(OC)cc3)c3ccccc23)cc1`: the IC50 on Keap1/Nrf2 [1] is 85 nM. Also, at Keap1/Nrf2 [2], the IC50 is 5.8 nM and the affinity corresponds to a Ki of 1.5 nM.
For `COc1ccc(S(=O)(=O)N(CC(N)=O)c2cc(CCC(=O)O)c(N(CC(N)=O)S(=O)(=O)c3ccc(OC)cc3)c3ccccc23)cc1`, the 50% inhibitory concentration (IC50) at Keap1/Nrf2 [1] was 162 nM; against Keap1/Nrf2 [2], 22.7 nM. The compound further returned a Ki on Keap1/Nrf2 [2] of 9.3 nM.
In the case of `COc1ccc(S(=O)(=O)N(CC(=O)O)c2cc(CCC(N)=O)c(N(CC(=O)O)S(=O)(=O)c3ccc(OC)cc3)c3ccccc23)cc1`, inhibition against Keap1/Nrf2 [1] was half-maximal at 108 nM (IC50). Also, on Keap1/Nrf2 [2], the IC50 came out at 11.7 nM and the Ki turned out to be 4.2 nM.
